≈ marks a conversion by molar mass, not a printed value. Read-outs that look alike come from different tables or passages of the source.
Columns and labels:
[1] = test system: multidrug-resistant M. tuberculosis isolates; assay: microbe, parasite or virus in culture; format: cell-based; conditions: for MIC: Mycobacterium tuberculosis, read-out: In vitro activity (MIC)
M. tuberculosis H37Rv = format: cell-based

Row | SMILES | cross-resistance against multidrug-resistant isolates [1] | MIC ([1]; H37RV, M. tuberculosis H37Rv) | MIC [1] | In vitro activity (MIC) ([1]; listed as Cmp13) | Resistance frequency at 4× MIC (M. tuberculosis H37Rv) | Resistance frequency at 10× MIC (M. tuberculosis H37Rv)
1 | CCOc1ccc(Cl)c2c1B(O)O[C@@H]2CN [Compound 13] | did not show any cross-resistance | 0.015 µg/mL (≈ 0.0621 µM) | 0.015 µg/mL (≈ 0.0621 µM) | 0.030 µg/mL |  | 
2 | CCOc1ccc(Br)c2c1B(O)O[C@@H]2CN [Compound 14] | did not show any cross-resistance | 0.03 µg/mL (≈ 0.105 µM) | 0.03 µg/mL (≈ 0.105 µM) |  | 4.6 × 10^−6 | 3.9 × 10^−6
3 | COc1c(N2C[C@@H]3CCCN[C@@H]3C2)c(F)cc2c(=O)c(C(=O)O)cn(C3CC3)c12 [Moxifloxacin, moxifloxacin, reference compound] |  |  |  |  | 1.7 × 10^−7 | 1.1 × 10^−8
4 | NNC(=O)c1ccncc1 [Isoniazid, isoniazid, reference compound] |  | 0.06 µg/mL (≈ 0.438 µM) | > 0.12 µg/mL |  |  | 1.8 × 10^−5

Reference: publication PMC5038265 (Antimicrobial Agents and Chemotherapy, 2016)
